Measurements reported in publication PMC12732581, “Molecular and System-Level Characterization of MMP12 Suppression in Lung Cancer: A Combined Bioinformatics and Molecular Approach” (International Journal of Molecular Sciences, 2025).
Where “and” joins values, the source holds several entries; their conditions need not be identical. Equal entries are not always repeated. One block for each compound: values may come before it.

Tests used:
recombinant human MMP12 = biological target: T1, recombinant human MMP12 (Homo sapiens, UniProt P39900); assay: MMP12 colorimetric thiopeptide enzyme inhibition assay (Abcam); type: biochemical
T1 construct: purchased Abcam
Experimental: The enzyme inhibition potential of synthesized p-chlorocinnamic acid derivatives against MMP12 was assessed using the Abcam colorimetric assay.
The inhibitory activity of the newly synthesized compounds against MMP12 was assessed using a previously established enzymatic assay protocol, as described in our earlier study. In brief, we conducted a colorimetric thiopeptide-based inhibition assay for MMP12 using recombinant human MMP12 and the reference inhibitor NNGH as a positive control. The IC50 values were calculated using GraphPad Prism version 9 (GraphPad Software, San Diego, CA, USA).

A549 lung cancer cells = assay: MTT cell viability assay, A549; type: cell-based, human
Experimental: (§1) To evaluate the impact of MMP12 inhibitors on lung cancer cell lines, an MTT assay was performed on A549, H1299, and H661 cells exposed to varying concentrations of inhibitors over 48, 72, and 96 h.
(§2) The lung cancer cell lines referenced as A549, H1299, and H661 were acquired from the American Type Culture Collection (ATCC, Manassas, VA, USA). Fibroblast cells of dermal origin were used as a model for normal human tissue, which were also purchased from ATCC. A549, H1299, and H661 cells were maintained in the RPMI culture medium, while fibroblast cells were maintained in the DMEM high glucose culture medium. Both RPMI and DMEM culture media were supplemented with 100 U/mL penicillin, 0.1 mg/mL streptomycin to prevent bacterial growth, 10% FBS to promote cell growth, and 2 mM L-glutamine as an energy source.
(§3) The 3-(4,5-dimethylthiazol-2-yl)-2,5-diphenyltetrazolium bromide (MTT) assay was employed to evaluate cell proliferation as previously noted. All experiments were performed in triplicate wells and were repeated at least twice independently. The percentage of the relative cell viability of treated cells versus the untreated cells (negative controls) was calculated using the following formula in Equation (1) (cell viability calculation):(1) Cell viability%=optical density of treated cells/optical density of untreated cells×100

H1299 lung cancer cells = assay: MTT cell viability assay, H1299; type: cell-based, human
Experimental: as §1, §2, §3

H661 lung cancer cells = assay: MTT cell viability assay, H661; type: cell-based, human
Experimental: as §1, §2, §3

H1299 cells [1] = assay: Wound healing migration assay; type: cell-based, human; settings: for Wound closure %: untreated 99; for Wound migration rate (px/h): untreated 16,702
Experimental: The wound healing migration assay was conducted using H1299 cells, following an established protocol. […] Images were captured at 0 and 48 h, and wound closure was quantified using ImageJ. Digital images were analyzed for wound area using the ImageJ software version 1.53e.

H1299 cells [2] = assay: Soft agar colony formation assay (anchorage-independent growth); type: cell-based, human; settings: for Colony count / Colony average size (px): H1299 soft agar; for Colony count: untreated 920; for Colony average size (px): untreated 746758
Experimental: Figures S12–S16 show a selection of images captured on day 15 at different magnifications: 4× and 20×.
The anchorage-independent colony formation assay was conducted using a previously described method with minor modifications. […] After 14 days of incubation, the colonies were imaged using the EVOS XL Core microscopeThermo Fisher Scientific, Waltham, MA, USA. and quantified.

CD44 mRNA in H1299 cells = assay: qPCR gene expression, CD44; type: cell-based, human; settings: H1299, 0.1 IC50, 72 h
Experimental: (§4) Quantitative real-time PCR (qPCR) was used to assess the impact of MMP12 inhibition in H1299 lung cancer cells.
(§5) Quantitative real-time PCR (qPCR) was conducted as previously described. Lung cancer cell lines (A549, H1299, H661) were seeded at approximately 4 × 10^5 cells per T-25 flask and incubated for 24 h. […] Total RNA was extracted, reverse-transcribed into cDNA, and qPCR was performed using SYBR Green on an Applied Biosystems platform, Foster City, CA, USA. Gene expression was normalized to GAPDH, and the fold-change was calculated using the 2^−ΔΔCt method. The basal expression of MMP12 in untreated A549, H1299, and H661 cells was assessed using the 2^−ΔCt method. Primer sequences and annealing temperatures (Ta) are listed in Table S2 (Supplementary Materials).

[3] = system: NFKBIA mRNA in H1299 cells; assay: qPCR gene expression, NFKBIA; type: cell-based, human; settings: H1299, 0.1 IC50, 72 h
Experimental: as §4, §5

[4] = system: PSME3 mRNA in H1299 cells; assay: qPCR gene expression, PSME3; type: cell-based, human; settings: H1299, 0.1 IC50, 72 h
Experimental: as §4, §5

[5] = system: SPARCL1 mRNA in H1299 cells; assay: qPCR gene expression, SPARCL1; type: cell-based, human; settings: H1299, 0.1 IC50, 72 h
Experimental: as §4, §5

[6] = system: ADAM9 mRNA in H1299 cells; assay: qPCR gene expression, ADAM9; type: cell-based, human; settings: H1299, 0.1 IC50, 72 h
Experimental: as §4, §5

[7] = system: APOA1 mRNA in H1299 cells; assay: qPCR gene expression, APOA1; type: cell-based, human; settings: H1299, 0.1 IC50, 72 h
Experimental: as §4, §5

[8] = system: CCL15 mRNA in H1299 cells; assay: qPCR gene expression, CCL15; type: cell-based, human; settings: H1299, 0.1 IC50, 72 h
Experimental: as §4, §5

[9] = system: MMP12 mRNA in H1299 cells; assay: qPCR gene expression, MMP12; type: cell-based, human; settings: H1299, 0.1 IC50, 72 h
Experimental: as §4, §5

[10] = system: MMP12 protein in H1299 cells; assay: Western blot of MMP12 protein expression; type: cell-based, human; settings: for Normalized MMP-12 (to GAPDH), Western blot: untreated H1299 0.9696
Experimental: Western blotting was conducted to assess the protein expression of MMP12 in lung cancer cell lines (A549, H1299, and H661), following the protocol established earlier. In summary, cells were seeded and incubated for 24 h. […] Total protein lysates were prepared, separated by SDS-PAGE, and transferred to nitrocellulose membranes. These membranes were then probed with primary antibodies against MMP12 and GAPDH. The protein bands were visualized using an HRP substrate and analyzed for relative expression.

H1299 cells [11] = assay: Cell cycle analysis (PI staining, flow cytometry); type: cell-based, human; settings: H1299, ½ IC50, 48 h
Experimental: Cell cycle distribution was evaluated in H1299 cells using a modified version of the method described. […] After the treatment period, the cells were fixed with ethanol, stained with a propidium iodide/RNase A solution, and analyzed using a BD FACSCanto II flow cytometer. The data were processed with BD FACSDiva software version 8 (BD Biosciences, San Jose, CA, USA).

H1299 cells [12] = settings: human, 72 h
Experimental: (§6) Apoptosis was assessed using Annexin-V/PI staining, following the method described earlier with minor modifications [84]. […] After the treatment, the cells were collected and stained with Annexin-V-FITC and propidium iodide. The stained cells were then analyzed using a BD FACSCanto II flow cytometer (Becton, Dickinson and Company (BD), Franklin Lakes, NJ, USA) and FACSDiva software (Becton, Dickinson and Company (BD), Franklin Lakes, NJ, USA).

H1299 cells [13] = assay: Annexin V-FITC/PI apoptosis assay (flow cytometry); settings: H1299, double IC50, 72 h; for Necrosis (%) (Annexin−/PI+, Q1-UL): control 0.7; for Late Apoptosis (%) (Annexin+/PI+, Q1-UR): control 2.6; for Early Apoptosis (%) (Annexin+/PI−, Q1-LR): control 8.7; for Total Apoptosis (%): control 11.3
Experimental: as §6

[14] = highest listed concentration (IC50)
[15] = lowest listed concentration (¼ IC50)
[16] = middle listed concentration (½ IC50)
[17] = relative to untreated, GAPDH normalized

T1 sequence (P39900 106-470): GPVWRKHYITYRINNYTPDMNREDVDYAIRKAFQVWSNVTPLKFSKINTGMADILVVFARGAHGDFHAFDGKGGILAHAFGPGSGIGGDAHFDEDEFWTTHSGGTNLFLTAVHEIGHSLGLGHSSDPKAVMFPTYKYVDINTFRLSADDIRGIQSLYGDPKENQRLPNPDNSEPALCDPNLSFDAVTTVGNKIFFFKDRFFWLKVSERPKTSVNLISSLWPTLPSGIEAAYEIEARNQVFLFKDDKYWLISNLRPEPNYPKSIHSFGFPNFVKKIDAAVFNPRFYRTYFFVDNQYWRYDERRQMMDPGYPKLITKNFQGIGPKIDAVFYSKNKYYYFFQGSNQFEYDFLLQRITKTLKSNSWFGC

MMP12 enzyme inhibition (recombinant human MMP12; at 50 µM): 23.3% | IC50 (A549 lung cancer cells; A549, 48 h): 963 µM | IC50 (A549 lung cancer cells; A549, 72 h): 396 µM | IC50 (A549 lung cancer cells; A549, 96 h): 168 µM | IC50 (H1299 lung cancer cells; H1299, 48 h): 616 µM | IC50 (H1299 lung cancer cells; H1299, 72 h): 302 µM | IC50 (H1299 lung cancer cells; H1299, 96 h): 254 µM | IC50 (H661 lung cancer cells; H661, 48 h): 562 µM | IC50 (H661 lung cancer cells; H661, 72 h): 319 µM | IC50 (H661 lung cancer cells; H661, 96 h): 146 µM
SMILES: Cc1ccc(NC(=O)/C=C/c2ccc(Cl)cc2)c(C(=O)c2ccccc2)c1 [Compound C4]

inhibition at 50 µM (recombinant human MMP12): 32.9% | IC50 (A549 lung cancer cells; A549, 72 h): 118 µM | IC50 (A549 lung cancer cells; Homo sapiens, A549, 48 h): 198 µM | IC50 (A549 lung cancer cells; Homo sapiens, A549, 72 h): 119 µM | IC50 (A549 lung cancer cells; Homo sapiens, A549, 96 h): 82 µM | IC50 (H1299 lung cancer cells; H1299, 72 h): 91 µM and 91.7 µM | IC50 (H1299 lung cancer cells; Homo sapiens, NCI-H1299, 48 h, H1299, 48 h): 359 µM | IC50 (H1299 lung cancer cells; Homo sapiens, NCI-H1299, 72 h, H1299, 72 h): 91.7 µM | IC50 (H1299 lung cancer cells; Homo sapiens, NCI-H1299, 96 h, H1299, 96 h): 99.7 µM | IC50 (H661 lung cancer cells; H661, 72 h): 34 µM | IC50 (H661 lung cancer cells; Homo sapiens, NCI-H661, 48 h, H661, 48 h): 60.4 µM | IC50 (H661 lung cancer cells; Homo sapiens, NCI-H661, 72 h, H661, 72 h): 33.9 µM | IC50 (H661 lung cancer cells; Homo sapiens, NCI-H661, 96 h, H661, 96 h): 129 µM
SMILES: O=C(/C=C/c1ccc(Cl)cc1)Nc1ccc(C(=O)c2ccccc2)cc1 [Compound C1]
Wound closure % (H1299 cells [1]; H1299, 48 h, at IC50 concentration): 10% | Wound closure % (H1299 cells [1]; H1299, 48 h, at ¼ IC50): 72% | inhibition of wound closure (H1299 cells [1]; H1299, 48 h, at ½ IC50 (C1 45.9, C7 24.1, C9 21.7, C10 32.7, C15 72.6 µM)): ~50% | Wound closure % (H1299 cells [1]; H1299, 48 h, at ½ IC50): 50% | Wound migration rate (px/h) (H1299 cells [1]; H1299, at IC50 concentration): 1,640.73 px/h | Wound migration rate (px/h) (H1299 cells [1]; H1299, at ¼ IC50): 11,751 px/h | Wound migration rate (px/h) (H1299 cells [1]; H1299, at ½ IC50): 9,225 px/h | formation of cell colonies (number and size), in words (H1299 cells [2]; H1299, IC50, ½ IC50 or ¼ IC50, 72 h, vs untreated control): inhibited the formation of cell colonies | Colony count (H1299 cells [2]; [14]): 292 | Colony average size (px) (H1299 cells [2]; [14]): 51655 px | Colony count (H1299 cells [2]; [15]): 520 | Colony average size (px) (H1299 cells [2]; [15]): 262500 px | Colony count (H1299 cells [2]; [16]): 408 | Colony average size (px) (H1299 cells [2]; [16]): 130041 px | CD44 Fold Change (2^−ΔΔCt) (CD44 mRNA in H1299 cells; [17]): 0.48 | CD44 % Change (CD44 mRNA in H1299 cells; vs untreated control): −52% | NFKBIA Direction [3]: Up | NFKBIA Fold Change (2^−ΔΔCt) [3, 17]: 24.33 | NFKBIA % Change ([3]; vs untreated control): +2333% | PSME3 Fold Change (2^−ΔΔCt) [4, 17]: 0.54 | PSME3 % Change ([4]; vs untreated control): −46% | SPARCL1 Fold Change (2^−ΔΔCt) [5, 17]: 0.49 | SPARCL1 % Change ([5]; vs untreated control): −51% | ADAM9 Direction [6]: Up | ADAM9 Fold Change (2^−ΔΔCt) [6, 17]: 123.60 | ADAM9 % Change ([6]; vs untreated control): +12,260% | APOA1 Fold Change (2^−ΔΔCt) [7, 17]: 0.79 | APOA1 % Change ([7]; vs untreated control): −21% | CCL15 Fold Change (2^−ΔΔCt) [8, 17]: 0.03 | CCL15 % Change ([8]; vs untreated control): −97% | MMP12 Fold Change (2^−ΔΔCt) [9, 17]: 0.78 | MMP12 % Change ([9]; vs untreated control): −22% | MMP12 protein suppression (Western blot), in words ([10]; H1299, 0.1, ¼ and ½ IC50): less effective | Normalized MMP-12 (to GAPDH), Western blot ([10]; H1299, 0.1 IC50, 72 h): 0.6296 | Normalized MMP-12 (to GAPDH), Western blot ([10]; H1299, ¼ IC50, 72 h): 0.3747 | Normalized MMP-12 (to GAPDH), Western blot ([10]; H1299, ½ IC50, 72 h): 0.1966 | cells in G2/M phase (H1299 cells [11]): 9.1% | cells in S phase (H1299 cells [11]): 36.5% | cells in G0/G1 phase (H1299 cells [11]; untreated 62.5%): 47.4% | Viable (%) (Annexin−/PI−, Q1-LL) (H1299 cells [12]): 78.6% | Necrosis (%) (Annexin−/PI+, Q1-UL) (H1299 cells [13]): 1.9% | Late Apoptosis (%) (Annexin+/PI+, Q1-UR) (H1299 cells [13]): 2.9% | Early Apoptosis (%) (Annexin+/PI−, Q1-LR) (H1299 cells [13]): 16.6% | Total Apoptosis (%) (H1299 cells [13]): 19.5%

SMILES: N.N.[Cl][Pt][Cl] [Cisplatin, reference compound]
Necrosis (%) (Annexin−/PI+, Q1-UL) (H1299 cells [13]): 1.7% | Late Apoptosis (%) (Annexin+/PI+, Q1-UR) (H1299 cells [13]): 11.6% | Early Apoptosis (%) (Annexin+/PI−, Q1-LR) (H1299 cells [13]): 28.6% | Total Apoptosis (%) (H1299 cells [13]): 40.2%
